Laboratory results from US20250345454A1, “CHEMOTHERAPEUTIC PACLITAXEL BASED MICELLULAR NANOPARTICLES” (Peptinovo Biopharma Inc., priority 2024, published 2025).
Where no end group is shown, it is not given here. [ ]: non-standard residue; d: D form. Aib = CC(C)(N)C(=O)O

Assays:
[1] = test system: SK-OV-3 cells; test: SK-OV-3 growth inhibition, 72 hr, MTT assay; assay type: cell-based, human; conditions: for SK-OV-3 growth inhibition, comparison of anchor lipids: conjugates tested as C-m-HDLs prepared by solvent lyophilization, FIGS. 12A and 12B; for SK-OV-3 growth inhibition, comparison of peptides: tested as C-m-HDLs loaded with conjugate 20 made with the named peptide, FIG. 13
Protocol: In this Example, the mole portions of components in the C-m-HDLs prepared by solvent lyophilization were POPC: egg SM: peptide: conjugate 5.6:2.4:2:1. 20 mM stock solutions of POPC and of egg SM were prepared in tert-butyl alcohol: water (8:2 v/v). Peptide SEQ ID NO: 25 (acetate counter ion) was dissolved in tert-butyl alcohol/water/acetic acid (80:20:7 v/v) to obtain a 10 mM peptide solution. Conjugates 20 and 30 were separately dissolved in tert-butyl alcohol: water (95:5) to a final concentration of 10 mM.
For C-m-HDL preparation, 2.8 mL of 20 mM POPC, 1.2 mL of 20 mM egg SM, 2 mL of 10 mM peptide, 1 mL of 10 mM conjugate, and 0.3 mL acetic acid were combined in a 20 mL glass vial. The combined solution was frozen at ≥−70° C. for ≥1 hr. The frozen vial was placed in the chamber of a lyophilizer set at a shelf temperature of −20° C. A vacuum between 100 to 150 mTorr was applied for >20 hr. The shelf temperature was raised to −10° C. and the vacuum was continued for >15 hr. The shelf temperature was then raised to 20° C. and the vacuum continued for 24 hr. The dried cake was dissolved in PBS to obtain C-m-HDLs. The uniformity of the C-m-HDLs was evaluated by SEC (Acclaim™ SEC-1000, 300 mm×4.6 mm column, 0.3 mL/min PBS mobile phase, 210 nm and 280 nm UV detection) and by dynamic light scattering. The phospholipid content was established with a commercially available, enzyme-based, colorimetric assay kit. Peptide and conjugate content were established by HPLC.
Two C-m-HDLs were prepared as above, containing either Conjugate 20 or Conjugate 30 were then tested for their growth inhibition activity against SK-OV-3 cells (ATCC). SK-OV-3 cells were grown in McCoy's-5A media supplemented with 10% fetal bovine serum and maintained in a 37° C. incubator under a 5% CO2 atmosphere. To assess growth inhibition, the growth medium of cells grown in 96-well plates was supplemented with various concentrations of C-m-HDL (cmpd 20), C-m-HDL (compd 30) or paclitaxel from a DMSO stock solution. The 96-well plates were incubated for 72 hr. The relative amount of live cells in each of the wells after 72 hr was determined with the MTT assay. The concentrations of test articles causing 50% growth inhibition (GIso) were obtained by performing a non-linear fit of the MTT results to a 4-parmeter logistic function. The results are plotted in FIG. 11.

[2] = test system: Sprague-Dawley rats; test: Adrenal gland functionality in rats after dosing (ACTH challenge, plasma corticosterone); assay type: in vivo; conditions: 4 mg/kg on Days 1, 4 and 7; ACTH challenge Day 11; paclitaxel intraperitoneal, C-m-HDL intravenous; FIG. 10
Protocol: A paclitaxel stock solution was prepared by dissolving paclitaxel in 1:1 (v/v) Cremophor EL/ethanol (95%) to a final paclitaxel concentration of […] (C-E paclitaxel solution). Next, a paclitaxel solution suitable for dosing was prepared by combining one volume of the C-E paclitaxel solution with 3 volumes of 0.9 weight % NaCl. This solution is designated as “Control”.
C-m-HDL (cmpd 20) was prepared as per Example 12.
The in vivo study was conducted in rats in accordance with the current guidelines for animal welfare (Guide for the Care and Use of Laboratory Animals, 8th Ed., 2011). The procedures used in the study were reviewed and approved by the Institutional Animal Care and Use Committee.
Eighteen (18) female Sprague-Dawley rats were randomly assigned to 3 groups of 6 animals each. All animals were lightly anesthetized using isoflurane and dosed intraperitoneally on Days 1, 4, and 7 with paclitaxel at 4 mg/kg in a dose volume of 1.5 mL/kg, or intravenously with C-m-HDL (cmpd 20) at 4 mg/kg or vehicle (saline) via the tail vein using a dose volume of 1.5 mL/kg. Group 1 received saline, Group 2 received paclitaxel, and Group 3 received C-m-HDL (cmpd 20). On Day 11, rats in each group were lightly anesthetized using isoflurane within their home cage to minimize potential stress responses. […] Plasma corticosterone content was determined with a commercially available ELISA kit.

For `CC(=O)O[C@H]1C(=O)[C@@]2(C)[C@H]([C@H](OC(=O)c3ccccc3)[C@]3(O)C[C@H](OC(=O)[C@H](OC(=O)Oc4cc(C)c5c(c4)CC[C@@](C)(CC/C=C(\C)CC/C=C(\C)CCC=C(C)C)O5)[C@@H](NC(=O)c4ccccc4)c4ccccc4)C(C)=C1C3(C)C)[C@]1(OC(C)=O)CO[C@@H]1C[C@@H]2O` [Conjugate 20, paclitaxel-delta-tocotrienol conjugate], the “SK-OV-3 growth inhibition, comparison of anchor lipids” value [1] was “equivalent results” and the “SK-OV-3 growth inhibition, comparison of anchor lipids” value ([1]; listed as paclitaxel-delta-tocotrienol) was “essentially equivalent”.

With `CC(=O)O[C@H]1C(=O)[C@@]2(C)[C@H]([C@H](OC(=O)c3ccccc3)[C@]3(O)C[C@H](OC(=O)[C@H](O)[C@@H](NC(=O)c4ccccc4)c4ccccc4)C(C)=C1C3(C)C)[C@]1(OC(C)=O)CO[C@@H]1C[C@@H]2O` [paclitaxel] the “adrenal function / adrenal toxicity” value [2] was “lack of adrenal toxicity”.

For “DVFQKLXELFNQLLEKWKQV (DVFQKL[Aib]ELFNQLLEKWKQV) [SEQ ID NO: 25, amphiphilic, alpha-helical peptide used to prepare C-m-HDLs]”, the “SK-OV-3 growth inhibition, comparison of peptides” value [1] was “substantially the same”.

With “DVFQKLXELFNQLXEKWKQV (DVFQKL[Aib]ELFNQL[Aib]EKWKQV) [SEQ ID NO: 35, amphiphilic, alpha-helical peptide used to prepare C-m-HDLs]” the “SK-OV-3 growth inhibition, comparison of peptides” value [1] was “substantially the same”.
